Where two headings read alike, the source gives them in different places. Numbered stars: 1 amine (or outer) side, 2 acyl side, 3 side chain; on linkers, the order of the positions; unused ones are H or OH. Bridge positions count the residues as written; N and C are the ends. Square brackets hold non-standard residues; d marks the D form. Peptide text beside a SMILES is read from it. NGly(3-aminopropyl) = O=C(CN(CCCN[*:3])[*:1])[*:2]; N(2-Aminoethyl)Gly = O=C(CN(CCN[*:3])[*:1])[*:2]; N(CH2CH2CO)Gly = O=C(CN(CCC(=O)[*:3])[*:1])[*:2]
Columns and labels:
BK2 receptors = biological target: T1, BK2 receptors (Cavia porcellus, UniProt O70526); assay: Bradykinin antagonist assay, guinea-pig ileum contraction
T1 construct: This tissue contains predominantly BK2 receptors; from tissue; host or cells: guinea-pig ileum, longitudinal muscle layer with adhering mesenteric plexus
T1 sequence (O70526 1-372): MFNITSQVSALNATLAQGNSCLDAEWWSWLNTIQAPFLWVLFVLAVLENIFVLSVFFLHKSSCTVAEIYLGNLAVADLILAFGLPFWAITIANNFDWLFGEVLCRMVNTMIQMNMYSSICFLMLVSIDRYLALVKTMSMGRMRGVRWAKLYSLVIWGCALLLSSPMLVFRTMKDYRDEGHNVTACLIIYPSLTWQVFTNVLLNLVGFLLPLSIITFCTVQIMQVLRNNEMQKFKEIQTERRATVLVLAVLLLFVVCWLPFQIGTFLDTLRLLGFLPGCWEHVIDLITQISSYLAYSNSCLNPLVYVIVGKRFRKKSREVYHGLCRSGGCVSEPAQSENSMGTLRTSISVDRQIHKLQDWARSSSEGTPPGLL
Protocol: The ileum of the guinea-pig was selected as the preparation for the bioassay. This tissue contains predominantly BK2 receptors. The preparation consists of the longitudinal muscle layer with the adhering mesenteric plexus. The isolated preparation was kept in Krebs solution and contractions were measured with an isometric force transducer. […] Atropine (1 μM) was always present.

[1] = In vitro biostability in human serum; format: in vitro ADME; conditions: 37° C., HPLC determination of peptide degradation over time, compared with PTR 3001, octreotide, SRIF
Protocol: The in vitro biostability of a SST cyclic peptide analog, PTR 3002, was measured in human serum, and was compared to the same sequence in a non-cyclic peptide analog (PTR 3001), to octreotide (Sandostatin), and to native somatostatin (SRIF). […] The assay was based on HPLC determination of peptide degradation as a function of time at 37° C.

[2] = biological target: T2, Somatostatin Receptor (SSTR) Subtype SSTR 2B (Homo sapiens, UniProt P30874); assay: Inhibition of radioactive iodinated somatostatin (SRIF-14) binding, CHO cells expressing SSTR 2B; conditions: read-out: percent inhibition of radioactive iodinated somatostatin (SRIF-14) binding, SSTR 2B; for inhibition at 1 µM: Conc. 10^-6 M; for inhibition at 0.1 µM: Conc. 10^-7 M; for inhibition at 0.01 µM: Conc. 10^-8 M
T2 construct: expressed in transfected cells; host or cells: CHO cells
T2 sequence (P30874 1-356 isoform P30874-2): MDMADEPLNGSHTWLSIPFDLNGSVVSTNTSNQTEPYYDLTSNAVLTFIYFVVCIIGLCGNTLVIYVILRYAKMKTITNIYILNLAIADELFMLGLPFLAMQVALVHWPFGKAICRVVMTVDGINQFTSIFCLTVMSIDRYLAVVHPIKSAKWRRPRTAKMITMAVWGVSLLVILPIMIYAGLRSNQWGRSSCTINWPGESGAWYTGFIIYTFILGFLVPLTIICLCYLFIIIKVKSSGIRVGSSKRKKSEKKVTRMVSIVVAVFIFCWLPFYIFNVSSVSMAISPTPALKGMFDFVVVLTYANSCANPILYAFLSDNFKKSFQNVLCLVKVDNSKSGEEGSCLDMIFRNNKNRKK
Description: (§1) The values presented are percent inhibition of radioactive iodinated somatostatin (SRIF-14) binding.

[3] = biological target: T3, Somatostatin Receptor (SSTR) Subtype SSTR 5 (Homo sapiens, UniProt P35346); assay: Inhibition of radioactive iodinated somatostatin (SRIF-14) binding, CHO cells expressing SSTR 5; conditions: read-out: percent inhibition of radioactive iodinated somatostatin (SRIF-14) binding, SSTR 5; for inhibition at 1 µM: Conc. 10^-6 M; for inhibition at 0.1 µM: Conc. 10^-7 M; for inhibition at 0.01 µM: Conc. 10^-8 M
T3 construct: expressed in transfected cells; host or cells: CHO cells
T3 sequence (P35346 whole entry): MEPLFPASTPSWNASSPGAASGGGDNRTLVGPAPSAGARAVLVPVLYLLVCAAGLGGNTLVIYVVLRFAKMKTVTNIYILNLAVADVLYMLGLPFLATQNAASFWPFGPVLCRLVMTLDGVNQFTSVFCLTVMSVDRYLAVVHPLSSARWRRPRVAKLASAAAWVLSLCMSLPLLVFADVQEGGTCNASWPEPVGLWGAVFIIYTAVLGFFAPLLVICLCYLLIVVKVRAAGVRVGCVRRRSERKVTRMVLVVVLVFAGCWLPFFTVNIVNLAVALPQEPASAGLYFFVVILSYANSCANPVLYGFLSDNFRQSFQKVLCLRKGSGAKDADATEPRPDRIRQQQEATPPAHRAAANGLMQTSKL
Description: as §1

bradykinin receptors = biological target: T4, bradykinin receptors (Rattus norvegicus, UniProt P25023); assay: Bradykinin antagonist assay, (3H)dopamine release from PC 12 cells; format: cell-based; conditions: At 10^-6 M; (3H)dopamine release from PC 12 cells stimulated by bradykinin
T4 construct: PC 12 cells that express bradykinin receptors; endogenous in cells; host or cells: PC12 cells
T4 sequence (P25023 1-396): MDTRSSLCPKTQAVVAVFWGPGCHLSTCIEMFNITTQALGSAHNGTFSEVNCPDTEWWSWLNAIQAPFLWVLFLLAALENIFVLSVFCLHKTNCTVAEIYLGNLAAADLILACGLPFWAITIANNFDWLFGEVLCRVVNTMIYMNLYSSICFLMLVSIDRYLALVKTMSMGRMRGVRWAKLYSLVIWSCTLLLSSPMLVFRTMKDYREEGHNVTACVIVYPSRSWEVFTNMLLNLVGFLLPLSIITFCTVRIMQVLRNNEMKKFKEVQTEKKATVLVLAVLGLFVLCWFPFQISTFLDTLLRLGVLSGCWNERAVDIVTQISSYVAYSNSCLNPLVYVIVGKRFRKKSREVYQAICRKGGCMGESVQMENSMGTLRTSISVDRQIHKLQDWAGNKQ
Protocol: Novel backbone cyclized peptide analogs of the present invention were assayed in vitro for bradykinin antagonist activity by protection of (^3 H) dopamine release from PC 12 cells that express bradykinin receptors. PC12 cells were grown in Dulbecco Modified Eagle's medium with high glucose, supplemented with 10% horse serum, 5% fetal calf serum, 130 units/ml penicillin and 0.1 mg/ml streptomycin. For experiments, cells were removed from the medium using 1 mmole EDTA and replated on collagen coated-12-well plates and assayed 24 hr later. Release of (^3 H)dopamine was determined as follows: cells were incubated for 1.5 hr at 37° C. with 0.5 ml of growth medium and […] (^3 H)DA (41 Ci/mmole) and […] pargyline followed by extensive washing with medium (3×1 ml) and release buffer consisting of (mM): 130 NaCl; 5 KCl; 25 NaHCO3; 1 NaH2 PO4; 10 glucose and 1.8 CaCl2. In a typical experiment, cells were incubated with 0.5 ml buffer for 5 consecutive incubation periods of 3 min each at 37° C. Spontaneous (^3 H)DA release was measured by collecting the medium released by the cells successively for the first 3 min period. Antagonists were added to the cells 3 min prior to stimulation (at the second period), and stimulation of (^3 H)DA release by 100 nmole of bradykinin are monitored during the 3 period by 60 mmole KCl. The remaining of the (^3 H)DA was extracted from the cells by over night incubation with 0.5 ml 0.1N HCl. (^3 H)DA release during each 3 min period was expressed as a % of the total (^3 H)DA content of the cells. Net evoked release was calculated from (^3 H)DA release during stimulation period after subtracting basal (^3 H)DA release in the preceding baseline period if not indicated otherwise.

[4] = Lack of toxicity of cyclized peptide analogs in rats; format: in vivo
Description: These two doses are several orders of magnitude higher than those needed to elicit the desired endocrine effect. The peptides dissolved in saline produced no untoward side effects on the central nervous system, cardiovascular system, body temperature, nor on the periphery of the animals.

[5] = At 10^-6 M, guinea-pig ileum, BK 2×10^-8 M, atropine 1 μM present

Molecule | inhibition at 1 µM [2] [%] | inhibition at 0.1 µM [2] [%] | inhibition at 0.01 µM [2] [%] | inhibition at 1 µM [3] [%] | inhibition at 0.1 µM [3] [%] | inhibition at 0.01 µM [3] [%] | inhibition of BK activity (bradykinin receptors) [%] | inhibition of BK activity (BK2 receptors; [5]) [%] | further results
NC(N)=NCCC[C@H](NC(=O)[C@H](Cc1ccccc1)NC(=O)[C@@H]1CCCN1C(=O)[C@H](CO)NC(=O)[C@H](Cc1ccccc1)NC(=O)CNC(=O)[C@@H]1CCCN1C(=O)[C@@H]1CCCN1C(=O)[C@@H](N)CCCN=C(N)N)C(=O)O [BK, Arg^1 -Pro^2 -Pro^3 -Gly^4 -Phe^5 -Ser^6 -Pro^7 -Phe^8 -Arg^9, reference compound] (H-RPPGFSPFR-OH) | – | – | – | – | – | – | – | – | EC50 (BK2 receptors): 0.02 µM
C[C@@H](O)[C@H](NC(=O)CN1CCNC(=O)CCN(C(=O)[C@H](N)Cc2ccccc2)CC(=O)N[C@@H](Cc2ccccc2)C(=O)N[C@H](Cc2c[nH]c3ccccc23)C(=O)N[C@@H](CCCCN)C(=O)N[C@@H]([C@@H](C)O)C1=O)C(N)=O [PTR 3002] (H-[dF][N(CH2CH2CO)Gly]F[dW]KT[N(2-Aminoethyl)Gly]T-NH2; lactam 2-7) | – | – | – | – | – | – | – | – | in vitro biostability in human serum [1]: as stable as octreotide, is more stable than the corresponding non-cyclic structure, and is much more stable than SRIF
C[C@@H](O)[C@H](NC(=O)CNC(=O)[C@@H](NC(=O)[C@H](CCCCN)NC(=O)[C@@H](Cc1c[nH]c2ccccc12)NC(=O)[C@H](Cc1ccccc1)NC(=O)CNC(=O)[C@H](N)Cc1ccccc1)[C@@H](C)O)C(N)=O [PTR 3003] (H-[dF]GF[dW]KTGT-NH2) | 16 | 3 | 0 | 55 | 20 | 0 | – | – | –
C[C@@H](O)[C@H](NC(=O)CN1CCCNC(=O)CN(C(=O)[C@H](N)Cc2ccccc2)CC(=O)N[C@@H](Cc2ccccc2)C(=O)N[C@H](Cc2c[nH]c3ccccc23)C(=O)N[C@@H](CCCCN)C(=O)N[C@@H]([C@@H](C)O)C1=O)C(N)=O [PTR 3004] | 0 | 0 | 0 | 14 | 0 | 0 | – | – | –
Ada-D-Arg-Arg-N^α (6-acetamidohexylene)Gly-Hyp-Phe-D-Asp(NH-Me)-D-Phe-Phe-Arg-OH [Example 2] | – | – | – | – | – | – | 0 | 0 | –
C[C@@H](O)[C@H](NC(=O)CN1CCCNC(=O)CCN(C(=O)[C@H](N)Cc2ccccc2)CC(=O)N[C@@H](Cc2ccccc2)C(=O)N[C@H](Cc2c[nH]c3ccccc23)C(=O)N[C@@H](CCCCN)C(=O)N[C@@H]([C@@H](C)O)C1=O)C(N)=O [PTR 3007] (H-[dF][N(CH2CH2CO)Gly]F[dW]KT[NGly(3-aminopropyl)]T-NH2; lactam 2-7) | 0 | 0 | 0 | 19 | 9 | 0 | – | – | respiratory disturbances, stereotyped behavior, muscle tone ([4]; rats observed for 4 hours post administration): produced no respiratory disturbances, did not result in the appearance of stereotyped behavior, or produce any changes in muscle tone; tolerability ([4]; rats, 1.5 mg/kg, single intraperitoneal application): well tolerated
H-D-Arg-Arg-cyclo(N^α (4-propanoyl)Gly-Hyp-Phe-N^α (3-amido-propyl)-S-Phe)-Ser-D-Phe-Phe-Arg-OH [Example 4] | – | – | – | – | – | – | 17 | 17 | –
C[C@@H](O)[C@H](NC(=O)CN1CCC(=O)NCCCN(C(=O)[C@H](N)Cc2ccccc2)CC(=O)N[C@@H](Cc2ccccc2)C(=O)N[C@H](Cc2c[nH]c3ccccc23)C(=O)N[C@@H](CCCCN)C(=O)N[C@@H]([C@@H](C)O)C1=O)C(N)=O [PTR 3010] (H-[dF][NGly(3-aminopropyl)]F[dW]KT[N(CH2CH2CO)Gly]T-NH2; lactam 2-7) | 0 | 0 | 0 | 63 | 26 | 9 | – | – | –
H-D-Arg-Arg-cyclo(N^α (1-(4-propanoyl))Gly-Hyp-Phe-N^α (3-amido-propylene)Gly)-Ser-D-Phe-Phe-Arc-OH [Example 3] | – | – | – | – | – | – | – | 10 | –
Ada-(D)Arg-Arg-cyclo(N^α (1-(6-aminohexylene)Gly-Hyp-Phe-D-Asp)-D-Phe-Phe-Arg-OH [Example 1] | – | – | – | – | – | – | 30 | – | inhibition of BK activity (BK2 receptors): 24%

From patent publication US5874529A, “Conformationally constrained backbone cyclized peptide analogs” (Peptor Ltd., priority 1994, dated 1999)
